The values that follow come from article PMC9574860, “Chemical Toolkit for PARK7: Potent, Selective, and High-Throughput” (Journal of Medicinal Chemistry, 2022).

Assay [1] has as its target T1, PARK7 (Homo sapiens, UniProt Q99497).
T1 sequence (Q99497 1-189): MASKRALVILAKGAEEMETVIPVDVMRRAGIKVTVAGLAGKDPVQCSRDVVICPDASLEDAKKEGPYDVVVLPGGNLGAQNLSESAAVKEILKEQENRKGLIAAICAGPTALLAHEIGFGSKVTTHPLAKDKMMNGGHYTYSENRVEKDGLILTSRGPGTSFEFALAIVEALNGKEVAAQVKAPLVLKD
Briefly: Gel-based competition assay with probe 8RK59, PARK7 band. On the set-up: GST (N, cleaved yes); made in house; host or cells: E. coli BL21(DE3) Rosetta2. The assay is classed as biochemical. The note with it: compound 2 μM, 1 h; PARK7 and UCHL1 1 μM each; then 8RK59 2 μM 30 min; Figure 3B. The method, then:
(§1) To assess the inhibitory potency and selectivity of these compounds toward PARK7 and UCHL1, we performed a gel-based competition assay (Figure 3A).[36] A mixture of equal amounts of PARK7 and UCHL1 (1 μM) was treated with each of the synthesized compounds (2 μM) for 1 h, followed by incubation with fluorescent probe 8RK59 (2 μM) for 30 min. Samples were resolved by SDS-PAGE, and the gel was scanned for fluorescence. Inhibition of PARK7 or UCHL1 is reflected by the disappearance of their corresponding bands (Figure 3B). […] The inhibition potential of JYQ-88 against PARK7 was assessed in a similar assay where PARK7 was incubated with a serial dilution of JYQ-88 before treatment with probe 8RK59 (Figure 3C). A clear inhibition is visible at 0.5 μM, and full inhibition is achieved between 1 and 2 μM. […] The selectivity of JYQ-88 between UCHL1 and PARK7 was further confirmed in a direct competition assay between equal amounts of PARK7 and UCHL1 (Figure 3F). PARK7 inhibition was observed starting from 0.5 μM JYQ-88, whereas inhibition of UCHL1 was only detected at 20 μM. Since JYQ-88 and 8RK64 are enantiomers, we assumed that the interactions with PARK7 should be similar. To investigate how the chiral center influences the selectivity, we solved the crystal structure of the PARK7−JYQ-88 complex with 1.42 Å resolution (Figure 3G, Table S1, PDB 7PA3). The global positioning of the inhibitor in between the two α-helices was similar to that for 8RK64. […] This way, the thiazolo-pyridine part of JYQ-88 is bound in a similar manner as 8RK64 and the earlier observed interactions are largely the same. The formation of the isothiourea moiety, stabilized by the interaction with Glu18, and the interaction between the thiazole amine and the amide NH2 of the Asn76 side chain are still present. However, the interaction between the azidoacetyl carbonyl with the Leu128 backbone carbonyl can no longer be observed due to the rotation of the azidoacetyl moiety. The Lys132 residue also seems to have rotated (compared to Figure 2C).
(§2) The assay was performed in Tris buffer as described above.

The target in assay [2] is T2, UCHL1 (Homo sapiens, UniProt P09936).
T2 sequence (P09936 1-223): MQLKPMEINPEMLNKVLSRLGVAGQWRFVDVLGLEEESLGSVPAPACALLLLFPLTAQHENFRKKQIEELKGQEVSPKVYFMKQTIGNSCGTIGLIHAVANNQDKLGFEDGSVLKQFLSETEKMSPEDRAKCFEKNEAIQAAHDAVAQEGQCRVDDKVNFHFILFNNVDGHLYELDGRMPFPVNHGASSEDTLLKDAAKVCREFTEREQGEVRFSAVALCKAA
Briefly: Gel-based competition assay with probe 8RK59, UCHL1 band. The assay is classed as biochemical. The note with it: compound 2 μM, 1 h; PARK7 and UCHL1 1 μM each; then 8RK59 2 μM 30 min; Figure 3B. The method, then:
as §1, §2

In assay [3] the target is T1, PARK7. The experiment in a line: FP assay with Rhodamine110 probe JYQ-107 (IC50 and hit validation). The class given is binding. As to conditions: increasing concentrations, 60 min preincubation; Figure S7. Details: GST (N, cleaved yes); made in house; host or cells: E. coli BL21(DE3) Rosetta2. How it is done:
The assay was performed using the conditions as described above with a reaction volume of 20 μL per well in triplicate. Stock solutions of JYQ-88 of 1 and 0.1 mM were prepared. […] The FP signal was monitored with a BMG Labtech PHERAstar plate reader (λex/em 480/520 nm) for 2 h.
The validation was performed using the conditions as described above with a reaction volume of 20 μL per well in triplicate. […] The FP signal was monitored with a BMG Labtech PHERAstar plate reader (λex/em 480/520 nm) for 2 h. The relative loss of FP signal compared with reference controls was used to calculate the remaining enzyme activity. Inhibition percentage of these 40 compounds was plotted as a heatmap using GraphPad Prism 9.0.1 software. Color gradients indicate inhibition percentage, no inhibiton (white) and full inhibition (blue).

The target in assay [4] is T1, PARK7. The experiment in a line: Probe labeling of purified recombinant PARK7 (SDS-PAGE, fluorescence scanning). As to conditions: purified PARK7 1 μM, 1 h 37 °C; Figure 4A. On the set-up: GST (N, cleaved yes); made in house; host or cells: E. coli BL21(DE3) Rosetta2. The class given is binding. From the text: PARK7 inhibitor JYQ-88 was further converted into activity-based probes by installing SulfoCy5, Rhodamine110, or BodipyFL. We took advantage of the azide moiety in JYQ-88 and conjugated alkyne versions of these dyes using the copper(I)-catalyzed azide alkyne cycloaddition (CuAAC) to obtain compounds JYQ-92, JYQ-93, and JYQ-107 (Scheme 2). We next investigated the ability of the probes to label and visualize PARK7. […] The SulfoCy5 probe JYQ-92 and Rhodamine110 probe JYQ-107 labeled PARK7 already at 1 μM, while the BodipyFL probe JYQ-93 was less efficient than the other probes as PARK7 labeling was only observed from 5 μM.
All the labeling assays were performed in Tris buffer (50 mM Tris–HCl, 150 mM NaCl, 2 mM TCEP, pH 7.5). For labeling with the 8RK59 probe, 1 μM final concentrations of UCHL1 and PARK7 were individually or together incubated with 2 μM final concentrations of 8RK59 for 30 min at 37 °C, followed by protein visualization. For labeling with JYQ-92, JYQ-93, and JYQ-107, 1 μM final concentration of PARK7 was incubated with different concentrations (0, 0.1, 0.5, 1, 2, 5, and 10 μM) of the indicated probes for 1 h at 37 °C. […] These samples were resolved by SDS-PAGE using precast Bis-Tris gels (Invitrogen, NuPAGE) with MES SDS running buffer (Novex, NuPAGE).

Assay [5] addresses T2, UCHL1. Briefly: UCHL1 activity assay (Ub-Rho-Morpholine or Ub-AMC substrate). The assay is classed as biochemical. The note with it: UCHL1 1 nM, 1 h preincubation; read-out: UbRhoMP assay UCHL1 IC50. The method, then:
The assay was performed in a buffer containing 50 mM Tris·HCl, 100 mM NaCl at pH 7.5, 2.0 mM cysteine, 1 mg/mL 3-[(3-cholamidopropyl)dimethylammonio]propanesulfonic acid (CHAPS), and 0.5 mg/mL bovine serum albumin and conducted in a 384-well plate (Corning 3820) with a reaction volume 20 μL in triplicate. The compounds were dissolved in DMSO as 10, 1, and 0.1 mM stock solutions and were transferred to obtain a 12-point serial dilution of 0.05 to 200 μM. Next, UCHL1 (15 μL, final concentration of 1 nM) was dispensed with a Biotek MultiFlowFX liquid dispenser and incubated for 1 h, followed by dispensing the substrate Ub-Rho-Morpholine or Ub-AMC (5 μL, final concentration of 400 nM). The FI signal was monitored with a BMG Labtech PHERAstar plate reader (λex/em 487/535 nm or λex/em 350/450 nm) for 1 h. N-Ethylmaleimide (NEM, 10 mM) was used as a positive control (100% inhibition), and DMSO was used as a negative control (0% inhibition). All samples were normalized to the positive and negative controls and plotted against the inhibitor concentrations (in μM) using the built-in equation “[inhibitor] vs response – variable slope (four parameters), least-squares fit” with constraints “Bottom = 0” and “Top = 100” in GraphPad Prism 9.0.1 software to obtain the IC50 values.

In assay [6] the target is T1, PARK7. The experiment in a line: High-throughput FP screen of covalent fragment library with JYQ-107. The note with it: HTS, 100 μM compound, PARK7 0.2 μM, 2 h preincubation, JYQ-107 20 nM, 1536-well. The assay is classed as binding. Details: GST (N, cleaved yes); made in house; host or cells: E. coli BL21(DE3) Rosetta2. How it is done: The screen was conducted using the conditions as described above in 1536-well plates (Corning 3724) with a reaction volume of 8 μL per well. The compound library containing 7887 covalent fragments was purchased at Enamine Ltd. and received as 100 mM DMSO stocks in 384 well LDV Echo plates (Labcyte LP-0200). Stock solutions of 0.26 μM PARK7 and 80 nM JYQ-107 were prepared. Using a Labcyte Echo550 acoustic dispenser, 8 nL of the DMSO stock solution of the library compounds was transferred from the source plates into the empty 1536-well screening plates to obtain a 100 μM final compound concentration. Next, PARK7 (6 μL, final concentration 0.2 μM) was dispensed using a Biotek MultiflowFX liquid dispenser and incubated for 2 h, followed by dispensing the probe JYQ-107 (2 μL, final concentration 20 nM). After 2 h incubation, the FP signal was recorded on a BMG Labtech PHERAstar plate reader (λex/em 480/520 nm). The relative loss of FP signal compared with reference controls was used to calculate the remaining enzyme activity.

`N#CN1CC[C@H](C(=O)Nc2nc3c(s2)CN(C(=O)c2cn(CC4CCCO4)nn2)CC3)C1` (stereo partly drawn) [JYQ-55, (3S)-1-Cyano-N-(5-(1-((tetrahydrofuran-2-yl)methyl)-1H-1,2,3-triazole-4-carbonyl)-4,5,6,7-tetrahydrothiazolo[5,4-c]pyridin-2-yl)pyrrolidine-3-carboxamide]: the “Inhibition of PARK7 (disappearance of 8RK59-labeled band)” value in assay [1] was “hardly show any inhibition”. Also, in assay [2], the “Inhibition of UCHL1 (disappearance of 8RK59-labeled band)” value (from here on “Inhibition of UCHL1”) is listed as “hardly show any inhibition”. For the same compound, the “Inhibition of PARK7 in FP assay” value in assay [3] is listed as “no inhibition”.
As to `N#CN1CC[C@H](C(=O)Nc2nc3c(s2)CN(C(=O)CCCCBr)CC3)C1` [JYQ-78, (S)-N-(5-(5-Bromopentanoyl)-4,5,6,7-tetrahydrothiazolo[5,4-c]pyridin-2-yl)-1-cyanopyrrolidine-3-carboxamide], in assay [1], the “Inhibition of PARK7 (disappearance of 8RK59-labeled band)” value is given as “less efficiently”. In assay [2], the “Inhibition of UCHL1” value is recorded as “fully inhibit”.
In the same order, the values of `CN1C(=O)CC(C(=O)N2CCc3nc(NC(=O)[C@H]4CCN(C#N)C4)sc3C2)[C@@H]1c1cccnc1` (stereo partly drawn) [JYQ-79, (3S)-1-Cyano-N-(5-((2R)-1-methyl-5-oxo-2-(pyridin-3-yl)pyrrolidine-3-carbonyl)-4,5,6,7-tetrahydrothiazolo[5,4-c]pyridin-2-yl)pyrrolidine-3-carboxamide] are “less efficiently” and “fully inhibit”.
As a reminder, the IC50 is the point on the concentration scale where inhibition reaches its midpoint. As for `CC1=CC(C)=[N+]2C1=C(CCCCc1cn(CC(=O)N3CCc4nc(NC(=O)[C@@H]5CCN(C#N)C5)sc4C3)nn1)c1c(C)cc(C)n1[B-]2(F)F` [JYQ-93], the “Probe concentration from which PARK7 labeling was observed” value in assay [4] was determined as 5 µM. The half-inhibitory concentration (IC50) in assay [5] was 23 µM.
On to `O=C(NC1CCN(Cc2ccccc2)CC1)n1ccnc1` [Z319217184, N-(1-benzylpiperidin-4-yl)-1H-imidazole-1-carboxamide], for which the Inhibition % in assay [6] stood at 1.56%.
Regarding `CC1(C)CN(C(=O)CC2OCCCO2)CC2(CCCC2)O1` [Z1953185127, 1-{7,7-dimethyl-6-oxa-9-azaspiro[4.5]decan-9-yl}-2-(1,3-dioxan-2-yl)ethan-1-one], the Inhibition % in assay [6] came out at 1.97%.
For the compound `NCC1CCN(C(=O)C=Cc2ccc(Cl)s2)C1` (stereo not shown) [Z2242910917, 1-[3-(aminomethyl)pyrrolidin-1-yl]-3-(5-chlorothiophen-2-yl)prop-2-en-1-one], the Inhibition % in assay [6] is on record as -0.36%.
In the case of `C#CC(=O)N1CCc2cc(C(=O)O)ccc21` [Z3227873366, 1-(prop-2-ynoyl)-2,3-dihydro-1H-indole-5-carboxylic acid], the Inhibition % in assay [6] is recorded as 1.76%.
Turning to `N#CC=Cc1cccc2cccnc12` [Z3236183481, 3-(quinolin-8-yl)prop-2-enenitrile], the Inhibition % in assay [6] is given as -0.97%.
In the case of “(3S)-N-(5-((1S,2R,5R)-Adamantane-2-carbonyl)-4,5,6,7-tetrahydrothiazolo[5,4-c]pyridin-2-yl)-1-cyanopyrrolidine-3-carboxamide [JYQ-83]”, the “Inhibition of PARK7 (disappearance of 8RK59-labeled band)” value in assay [1] was “hardly show any inhibition”. In addition, the “Inhibition of UCHL1” value in assay [2] was “hardly show any inhibition”.
